Assay results published in patent publication US20100227806A1, “Use Of A Ghrelin Agonist To Improve Catabolic Effects Of Glucocorticoid Treatment” (priority 2006, published 2010).

Assays:
[1] = Effects of pharmacological treatments on growth parameters in dexamethasone-treated young rats; type: in vivo, Sprague-Dawley rats; details: for Final Body Weight: prepubertal male rats, dexamethasone 40 μg/kg ip daily from day 23, A 80 nmoles/kg sc three times daily from day 30; for Final Body Weight / Final Nose-Anal Length / Lee Obesity Index / Growth Rate / Epididymal Fat Pads: mean ± SEM of eight animals; for Final Nose-Anal Length / Lee Obesity Index / Growth Rate / Epididymal Fat Pads: same regimen; for Growth Rate: slope of growth curve; for Epididymal Fat Pads: weight at sacrifice
Method: (§1) Thirty-two prepubertal male Sprague-Dawley rats approximately 21 days old and weighing between 45 and 55 grams, were obtained from Harlan, Italy (S. Pietro al Natisone, ITALY). During the study, the animals were maintained in accordance with the guidelines of the Italian Ministry of Health for the care and use of laboratory animals (Decreto legge 116/92). The animals were randomly divided into two treatment groups and kept in a controlled environment at a constant temperature of 21-23° C. with 12:12 light/dark exposure continuous period wherein the light exposure began at approximately 8:00 am and ended at approximately 8:00 pm. The animals were provided with water and food ad libitum consisting of an approximate 3200 calories/kg daily diet of standard pellet chow provided by Piccioni, Gessate-Milano, Italy (containing at least 19% protein, 3% fat and 56% carbohydrate).
(§2) Beginning on the 23rd day (i.e., the animals were 23 days old), 16 of the study animals were treated intraperitoneally (Ip) daily with 40 μg/kg of either saline or dexamethasone sodium phosphate (sold under the trademark Decadron® by Merck Pharmaceuticals, West Point, Pa.). Beginning on the 30th day (i.e., the animals were 30 days old), the subgroup of 16 studied animals was further divided into groups of 8 and treated subcutaneously three times daily (at approximately 9:00 am, 1:00 pm and 5:00 pm) with either 80 nmoles/kg of the preferred ghrelin analog [Aib^2, Glu^3(NH-hexyl)]hGhrelin(1-28)-NH2 (IPSEN, Milford, Mass.) dissolved in a sterile saline solution with 0.25% bovine serum albumin or vehicle (the saline-bovine serum albumin solution alone). This regimen continued for 24 days during which time the studied animals were weighed two times per week. At irregular intervals, the cumulative food intake for a 24-hour period of time was measured. Beginning on the 46th day (i.e., the animals were 46 days old), the length of the test and control animals from nose to anus was measured (hereinafter referred to as “the nose-anal length”). On the 47th day (i.e., the animals were 47 days old), all food was denied to the test subjects commencing at 8:00 am. Small samples of blood were taken via percutaneous puncture of the tail to assess blood glucose levels during the treatment period.
(§3) The test animals received two intravenous administrations of [Aib^2, Glu^3(NH-hexyl)]hGhrelin(1-28)-NH2 at approximately 9:00 am and 1:00 pm. The studied animals were sacrificed by rapid decapitation at approximately 2:00 pm, trunk blood collected for hormone level determinations, and the epididymal fat pads removed and weighed.
(§4) Unless otherwise stated, the results reported in FIGS. 3-6 are expressed as the mean±SEM of eight replicate test subjects. Data was analyzed for statistical significance by one-way ANOVA which determines the variation (variance) within the groups and how that variation translates into variation (i.e. differences) between the groups, taking into account how many subjects there are in each group. […] The linear correlation analysis was performed either by Pearson's parametric test or by Spearman's nonparametric test. A P value below 0.05 was considered significant.

[2] = Effects of pharmacological treatments on plasma hormones and glucose concentrations; type: in vivo, Sprague-Dawley rats; details: day 47, mean ± SEM of eight animals; for Glucose: at sacrifice; for Corticosterone / IGF-1 / Insulin: plasma at sacrifice
Method: as §1, §2, §3
Samples of trunk blood were taken from the test subjects via […]. The blood samples were collected in tubes containing EDTA, separated by centrifugation, and stored at −20° C. Plasma insulin, IGF-1, and corticosterone levels were all measured using commercial RIA kits (Insulin and Corticosterone kits were both obtained from ICN-Biomedicals, Asse-Relegem, BELGIUM and the rIGF-1 test kit was obtained from Mediagnostic GMbH, Tubingen, GERMANY). Glucose concentration was determined using the Glucotrend® Soft Test System blood glucose meter (Roche Diagnostics, Barcelona, SPAIN).
as §4

[3] = rat; cited from earlier work
[4] = 24-h food intake and food efficiency in treated young rats; type: in vivo, Sprague-Dawley rats
Description: FIG. 4. Panel A: the effect of the different pharmacological treatment on 24-h food intake expressed as a percent of the control value. Data represented the mean±SEM of nine determinations performed at irregular intervals from day 33 to day 47 after birth. Panel B: the effect of the different pharmacological treatments on food efficacy calculated as a ratio between food intake (g) and […] measured over the same time interval at different stages of growth. Data represents the meant SEM of eight rats. *P<0.05; **<0.01 vs SAL-treated rats (Dunnett's test). Panel C: the effect of the different pharmacological treatments on the cumulative food intake measured over the indicated time intervals at different stages of growth.
Beginning on the 23rd day (i.e., the animals were 23 days old), 16 of the study animals were treated intraperitoneally (Ip) daily with 40 μg/kg of either saline or dexamethasone sodium phosphate (sold under the trademark Decadron® by Merck Pharmaceuticals, West Point, Pa.). Beginning on the 30th day (i.e., the animals were 30 days old), the subgroup of 16 studied animals was further divided into groups of 8 and treated subcutaneously three times daily (at approximately 9:00 am, 1:00 pm and 5:00 pm) with either 80 nmoles/kg of the preferred ghrelin analog [Aib^2, Glu^3(NH-hexyl)]hGhrelin(1-28)-NH2 (IPSEN, Milford, Mass.) dissolved in a sterile saline solution with 0.25% bovine serum albumin or vehicle (the saline-bovine serum albumin solution alone). This regimen continued for 24 days during which time the studied animals were weighed two times per week. At irregular intervals, the cumulative food intake for a 24-hour period of time was measured. Beginning on the 46th day (i.e., the animals were 46 days old), the length of the test and control animals from nose to anus was measured (hereinafter referred to as “the nose-anal length”). […]
Food efficiency was calculated as the ratio between body weight gain (in grams) and food intake (in grams) measured over the same time interval.

| Molecule | Final Body Weight [1] [g] | Final Nose-Anal Length [1] [cm] | Lee Obesity Index [1] | Growth Rate [1] [g/day] | Epididymal Fat Pads [1] [g] | Glucose [2] [mg/dL] | Corticosterone [2] [ng/mL] | IGF-1 [2] [ng/mL] | Insulin [2] [μIU/ml] | glucocorticoid-mediated GH-inhibition [3] | growth suppression induced by DEX ([1]; concomitant treatment with DEX, FIG. 3) | somatic growth as compared to SAL-treated rats ([1]; young male rats, FIG. 3, Dunnett's t test) | food efficiency (ratio body weight gain / food intake) vs saline treatment ([4]; FIG. 4B, two out of three determinations) | cumulative 24-hour food intake vs saline-treated animals ([4]; after 10 days from beginning of dexamethasone treatment, FIG. 4A) | decrease of food efficiency induced by dexamethasone ([4]; co-administration with dexamethasone, FIG. 4B) |
| --- | --- | --- | --- | --- | --- | --- | --- | --- | --- | --- | --- | --- | --- | --- | --- |
| C[C@@H]1C[C@H]2[C@@H]3CCC4=CC(=O)C=C[C@]4(C)[C@@]3(F)[C@@H](O)C[C@]2(C)[C@@]1(O)C(=O)CO [Dexamethasone, 9-fluoro-11β,17,21-trihydroxy-16a-methylpregna-1,4-diene-3,20-dione, reference compound] | 185.2 ± 4.2 | 17.8 ± 0.2 | 321 ± 1.6 | 5.6 ± 0.2 | 1.14 ± 0.06 | 107 ± 6 | 19 ± 2 | 1257 ± 112 | 50 ± 6 |  |  |  |  |  |  |
| GHRP-6 |  |  |  |  |  |  |  |  |  | able to completely counteract |  |  |  |  |  |
| [Aib^2, Glu^3(NH-hexyl)]hGhrelin(1-28)-NH2 | 230.8 ± 4.8 | 19.3 ± 0.1 | 318 ± 1.4 | 7.6 ± 0.3 | 1.31 ± 0.07 | 122 ± 3 | 235 ± 23 | 1653 ± 87 | 40.4 ± 5.7 |  | reversed | significantly increased | increased | increased | able to reverse |
